Laboratory results: ChEMBL document CHEMBL3301546, “MMV Malaria Box yeast growth screening”

How the values were obtained:
Type in all cases: functional
Saccharomyces cerevisiae [1] = test: (§1) MMV: Growth assays were conducted using the prototrophic S. cerevisiae strain JHY222. Each MMV compound (0.1 mM) was tested in rich media containing dextrose as a carbon source (Yeast Extract, Peptone, Dextrose; YPD). The growth rate in the presence of each MMV compound was calculated as follows: (i) the first 10 OD readings were averaged and subtracted from all OD readings of the corresponding curve to set the baseline of the growth curve to zero, and (ii) the area under the curve (AUC) was then calculated as the sum of all OD readings. […] A relative growth value was calculated as follows: AUC(DRUG) - AUC(DMSO)/AUC(DMSO); where AUC(DMSO) represents growth measured in a DMSO control well that was on the same microtiter plate of the drug-treated culture.
Saccharomyces cerevisiae [2] = test: as §1, with “minimal” for “rich”, “Nitrogen Base,” for “Extract, Peptone,”, “YNBD).” for “YPD).”
Saccharomyces cerevisiae [3] = test: as §1, with “minimal” for “rich”, “ethanol and glycerol” for “dextrose”, “as” for “as a”, “sources” for “source”, “Nitrogen Base, Ethanol, Glycerol; YNBEG).” for “Extract, Peptone, Dextrose; YPD).”

Structure (SMILES)	Relative Growth (Saccharomyces cerevisiae [1])	Relative Growth (Saccharomyces cerevisiae [2])	Relative Growth (Saccharomyces cerevisiae [3])
COc1ccc(C2c3ccc4ccccc4c3Oc3ncn(CCCN(C)C)c(=N)c32)cc1 (stereo not drawn)	-0.012	-0.0503	-0.0587
COc1ccc(/C=C2/SC(=Nc3ccccc3)NC2=O)cc1	-0.1491	-0.223	-0.9641
COc1ccc(-c2nc(N3CCN(C(=O)C4CCCCC4)CC3)c3c4c(sc3n2)CCCC4)cc1	-0.0342	0.0845	-0.067
Cc1sc(NC(=O)c2ccccc2)c(C(c2cccs2)N2CCN(c3ccccc3)CC2)c1C (stereo not drawn)	0.0207	-0.0211	0.0234
CCOC(=O)c1c(C)n(-c2ccccc2)c2ccc(OC(=O)c3cc(OC)c(OC)c(OC)c3)cc12	-0.0253	-0.0133	-0.2171
COc1cc(C(=O)Nc2nc3c(cc4c5c(cccc53)CC4)s2)cc(OC)c1OC	0.0021	-0.1254	-0.0592
COc1ccc(CCN2C(=O)c3[nH]nc(-c4cc(Cl)c(C)cc4O)c3C2c2ccccc2F)cc1 (stereo not drawn)	-0.0103	-0.1352	-0.023
N#Cc1nc(Cc2cccc3ccccc23)oc1N1CCN(C(c2ccccc2)c2ccccc2)CC1	-0.0026	0.059	0.0463
O=C(NNc1cc(N2CCCC2)nc(N2CCCC2)n1)c1ccccc1	-0.9952	0.0342	-0.0043
COc1ccc(C2c3ccc4ccccc4c3Oc3ncn(CCCn4ccnc4)c(=N)c32)cc1OC (stereo not drawn)	0.015	-0.111	0.1296
CN(N=O)C1=C(NC2CCCCC2)C(=O)c2ccccc2C1=O	-0.04	-0.0674	-0.7745
OC1=C2C(=Nc3ccccc3SC2c2ccccc2)c2ccccc21 (stereo not drawn)	-0.0053	-0.1585	-0.0669
CCOc1ccc(N2C(N)=NC(N)=NC2(C)C)cc1.Cl	-0.0058	-0.1178	0.0602
CCCCCCc1cc2cc(-c3csc(C=Cc4ccccc4)n3)c(=O)oc2cc1O	-0.0646	-0.058	-0.0651
Oc1ccc(-c2nc(-c3ccc4oc5ccc(-c6[nH]c(-c7ccc(O)cc7)nc6-c6ccccc6)cc5c4c3)c(-c3ccccc3)[nH]2)cc1	-0.979	0.0106	-0.1734
CCOc1ccc(CN2CCN(CC(O)COc3ccc(OCC(O)CN4CCN(Cc5ccc(OCC)cc5)CC4)cc3)CC2)cc1 (stereo not drawn)	-0.0814	-0.1042	-0.2934
CCCCNc1nc(NC(C)(C)C)nc(NC(C)(C)C)n1	0.0174	-0.0768	-0.1542
COc1ccc(CNC(=O)c2cc3c(=O)n4ccccc4nc3n(CCc3ccccc3)c2=N)cc1	-0.0554	-0.2162	-0.0439
COc1ccc(-c2cn3c(C(=O)Nc4ccccc4Cl)c(-c4ccccc4)c4c3n2CCCC4)cc1	-0.0135	0.0523	-0.235
Cn1c(C(=O)c2cccc3ccccc23)nc2ccccc21	-0.0135	0.0393	0.1204
CCN(CC)CCNc1ccnc2cc3ccccc3cc12.O=P(O)(O)O	0.0094	-0.1052	-0.0873

Structure (SMILES)	Relative Growth (Saccharomyces cerevisiae [1])	Relative Growth (Saccharomyces cerevisiae [2])	Relative Growth (Saccharomyces cerevisiae [3])
COc1ccc(C=C2SC(Nc3ccc(F)cc3)=NC2=O)c(OC)c1	-0.0657	-0.7691	-0.8081
O=C(Nc1ccc(-c2nc3cc(NC(=O)c4ccc(Cl)cc4)ccc3[nH]2)cc1)c1ccc(Cl)cc1	-0.0297	0.0064	0.0694
OCCNc1nc(Nc2ccc(Cl)c(Cl)c2)nc2ccccc12	0.0231	-0.1441	0.0602
Nc1ccc(-c2nc3cc(Oc4ccc(Oc5ccc6[nH]c(-c7ccc(N)cc7)nc6c5)cc4)ccc3[nH]2)cc1	-0.9892	0.0002	-0.1502
CCOC(=O)c1cnc2ccc(OC)cc2c1Nc1ccc(N2CCN(C)CC2)cc1	-0.0196	0.0562	-0.1675
COc1ccc(C(=O)C(CCC(CNC(C)(C)C)C(=O)c2ccc(OC)cc2)CNC(C)(C)C)cc1 (stereo not drawn)	-0.0341	-0.0754	-0.4347
CCOc1cc2c(cc1OCC)C(c1cc(Cl)ccc1O)NCC2 (stereo not drawn)	-0.0098	0.0319	-0.522
COc1cc(C(=O)ON=C(N)Cc2cccc3ccccc23)cc(OC)c1OC	-0.2539	0.2835	0.1784
COc1cc(-c2nc(-c3ccccc3)c(-c3ccccc3)[nH]2)cc(OC)c1O	-0.0158	0.0542	-0.1558
OC(CNC1CCCCC1)Cn1c2ccc(I)cc2c2cc(I)ccc21 (stereo not drawn)	0.0125	0.4002	-0.0994
CCc1ccc(CNCC(O)c2ccccc2)cc1.Cl (stereo not drawn)	-0.1772	-0.0182	-0.0955
COc1cc(CNCCc2ccc(Cl)cc2)cc(OC)c1O	0.0063	0.0037	-0.0938
c1ccc(CNc2nc(Nc3ccccc3)nc3ccccc23)cc1	-0.0158	-0.1327	-0.0499
Oc1ccc(Br)cc1CN1CCN(Cc2ccc(Cl)cc2)CC1	0.004	-0.144	-0.4008
CCOc1ccc2nc(C)cc(Nc3ccc(Br)cc3)c2c1	0.0466	-0.9176	0.014
COc1cc2c3cc1Oc1c(OC)c(OC)cc4c1C(Cc1ccc(O)c(c1)Oc1ccc(cc1)CC3N(C)CC2)N(C)CC4.Cl (stereo not drawn)	-0.0961	0.0109	-0.1414
COc1ccc2sc(N(Cc3cccnc3)C(=O)c3ccc(C#N)cc3)nc2c1	-0.0469	-0.1064	-0.5371
CC1CC2=C(CC1CNCCCN(C)C)C(C)(C)CCC2 (stereo not drawn)	0.0011	0.0086	-0.1687
CCCn1c(=N)c(C(=O)NC2CCCCC2)cc2c(=O)n3cccc(C)c3nc21	-0.0177	0.1028	0.0799
CC(C)(C)c1ccc(C2CC3=Nc4ccccc4N(C(=O)c4ccccc4Cl)C(c4ccc(F)cc4)C3=C(O)C2)cc1 (stereo not drawn)	-0.0874	-0.0515	-0.3538
